Tests used:
[1] = UV absorption (sunscreening properties) in ethanol; assay type: physicochemical
Text: This compound had the following sunscreening properties:
spectral domain where ε is greater than 10,000: 297 to 377 nm.

[2] = photostability protocol for cosmetic UV filters; assay type: physicochemical; conditions: protocol of Inter. J. Cosm. Sci., 1996, 18, 167-177
Text: Loss of 5% after subjecting to the photostability protocol (according to BERST G., GONZPNBACH H., CHRIST R., MARTIN R., DEFLANDRE A., MASCOTTO R. E., JOLLEY J. D. R., LOWELL W., PELZER R., STIEHM T., Inter. J. Cosm.Sci., 1996, 18, 167-177. Proposed protocol for determination of photostability Part I: cosmetic UV filters).

| E1% [1] | λmax [1] [nm] | Loss after subjecting to the photostability protocol [2] [%] | SMILES |
| --- | --- | --- | --- |
| 1010 | 354.2 |  | N/C(=N\N=C\c1ccccc1O)c1cnccn1 [Compound 52, N′-[(E)-2-hydroxyphenylmethylidene]pyrazinecarbohydrazonamide] |
| 832 | 335 |  | N/C(=N\N=C\c1ccoc1)c1cnccn1 [Compound 70, N′-[(E)-3-furylmethylidene]-2-pyrazinecarbohydrazonamide] |
| 1016 | 341 | 5 | N/C(=N\N=C\c1cccnc1)c1cnccn1 [Compound 76, N′-[(E)-3-pyridinylmethylidene]-2-pyrazinecarbohydrazonamide] |
